For data set [1], the target named is T1, VCB protein (Homo sapiens, UniProt P40337).
T1 construct: A plasmid containing pVHL54–213 with an N-terminal His6 tag; His6 (N, cleaved yes); made in house; host or cells: Escherichia coli BL21 (DE3)
Description: Competitive fluorescence polarization (FP) binding assay, displacement of FAM-labeled HIF-1α peptide. Conditions: for Kd: dissociation constant, determined by FP, mean ± S.E.M., back-calculated from IC50; for IC50: mean IC50 values obtained from the FP assay, read-out: IC50 ± S.E.M, FP assay. The method, then: Binding of a ligand to the HIF binding site of VHL displaces a fluorescein-labeled, 19-mer HIF-1α oligopeptide, leading to a change in polarization of emitted light upon excitation of the competing fluorescent probe.
All components were dissolved from stock solutions using 100 mM Bis–Tris, 100 mM NaCl, 1 mM DTT, pH 7.0, to yield a final assay volume of 15 μL. DMSO was added as appropriate to ensure a final concentration of 2% (v/v). Control wells containing VCB and JC9 with no compound (zero displacement), or JC9, in the absence of protein (maximum displacement) were also included to allow for normalization. Percentage displacement values were obtained by normalization of controls and were plotted against log[compound]. The IC50 values were determined for each titration using non-linear regression analysis with Prism GraphPad (Table S1). Dissociation constants Kd for the compound–VCB interaction were back-calculated from the measured IC50 values by using a displacement binding model as described.[16],[64]

Data set [2] is described as follows: Log D7.4 measurement by chromatographic method. Conditions: experimental distribution coefficient at pH 7.4; read-out: e log D7.4. It is filed as physicochemical. The method, then:
(§1) Both were experimentally obtained employing HPLC-based protocols.[39],[40] […] PPB values were determined in view of how they could impact future pharmacokinetic studies of compounds as VHL inhibitors, or once conjugated into bifunctional PROTACs, for which PPB can be a limiting factor.
The determination of the log D7.4 values was performed by a chromatographic method as described previously.[41],[62] […] Subsequently, the mean retention times (n = 2) of the analytes were taken to calculate their log D7.4 values.

The target of data set [3] is human serum albumin (Homo sapiens, UniProt P02768). Description: PPB studies on HSA HPLC column. It is filed as in vitro ADME. Conditions: CHIRALPAK HSA HPLC column (human serum albumin); experimentally determined percentage of the compound bound to human serum albumin. The method, then: as §1
PPB was estimated by correlating the logarithmic retention times of the analytes on a […] HSA 50 × 3 mm, 5 μm column with the literature-known % PPB values (converted into log K values) of the following drugs: warfarin, ketoprofen, budesonide, nizatidine, indomethacin, acetylsalicylic acid, carbamazepine, piroxicam, nicardipine, and cimetidine.[63] Samples were dissolved in MeCN/DMSO 9:1 to achieve a final concentration of 0.5 mg/mL. The mobile phase A was 50 mM ammonium acetate adjusted to pH 7.4 with 10% NaOH, while mobile phase B was iPrOH. […] After injecting 3 μL of the sample, a linear gradient from 100% A to 30% iPrOH in 5.4 min was applied. From 5.4 to 18 min, 30% iPrOH was kept, followed by switching back to 100% A in 1.0 min and a re-equilibration time of 6 min.

We go through 15 molecules from PMC10544018 (Journal of Medicinal Chemistry, 2023).

As a reminder, the Kd is the equilibrium constant for the complex coming apart. In general, IC50 refers to the concentration that gives 50% inhibition. In general, fraction unbound refers to the share of the substance not bound to proteins or other matrix.

Regarding `Cc1cc(-c2scnc2C)ccc1CNC(=O)[C@@H]1C[C@@H](O)CN1C(=O)[C@@H](NC(=O)C1(C#N)CC1)C(C)(C)C` [Compound 2, (2S,4R)-1-((S)-2-(1-Cyanocyclopropane-1-carboxamido)-3,3-dimethylbutanoyl)-4-hydroxy-N-(2-methyl-4-(4-methylthiazol-5-yl)benzyl)pyrrolidine-2-carboxamide], in data set [1], the dissociation constant Kd is 0.149 ± 0.028 µM and the half-maximal inhibitory concentration (IC50) was 0.668 ± 0.033 µM. The chromatographic logD in data set [2] turned out to be 2. The free fraction (fraction unbound) at 0.5 mg/mL in data set [3] was 0.1.
On the same counts, the results for `COc1cc(-c2scnc2C)ccc1CNC(=O)[C@@H]1C[C@@H](O)CN1C(=O)[C@@H](NC(=O)C1(C#N)CC1)C(C)(C)C` [Compound 3, (2S,4R)-1-((S)-2-(1-Cyanocyclopropane-1-carboxamido)-3,3-dimethylbutanoyl)-4-hydroxy-N-(2-methoxy-4-(4-methylthiazol-5-yl)benzyl)pyrrolidine-2-carboxamide] are 0.183 ± 0.022 µM, 0.837 ± 0.035 µM, 1.9 and 0.12.
`Cc1ncsc1-c1ccc(CNC(=O)[C@@H]2C[C@@H](O)CN2C(=O)[C@@H](NC(=O)C2(C#N)CC2)C(C)(C)C)c(F)c1` [Compound 4, (2S,4R)-1-((S)-2-(1-Cyanocyclopropane-1-carboxamido)-3,3-dimethylbutanoyl)-N-(2-fluoro-4-(4-methylthiazol-5-yl)benzyl)-4-hydroxypyrrolidine-2-carboxamide]: in data set [1], the equilibrium dissociation constant (Kd) was 0.297 ± 0.034 µM and the IC50 is 1.36 ± 0.056 µM. Besides, the chromatographic logD in data set [2] was 1.9. In data set [3], this molecule showed a fraction unbound at 0.5 mg/mL of 0.12.
On to `Cc1ncsc1-c1ccc(CNC(=O)[C@@H]2C[C@@H](O)CN2C(=O)[C@@H](NC(=O)C2(C#N)CC2)C(C)(C)C)c(Cl)c1` [Compound 5, (2S,4R)-N-(2-Chloro-4-(4-methylthiazol-5-yl)benzyl)-1-((S)-2-(1-cyanocyclopropane-1-carboxamido)-3,3-dimethylbutanoyl)-4-hydroxypyrrolidine-2-carboxamide], for which, in data set [1], the dissociation constant (Kd) is 0.245 ± 0.02 µM and the IC50 amounted to 1.14 ± 0.131 µM. Moreover, the chromatographic logD in data set [2] was 2.2. Moreover, the fraction unbound at 0.5 mg/mL in data set [3] stood at 0.09.
As for `Cc1cc(CNC(=O)[C@@H]2C[C@@H](O)CN2C(=O)[C@@H](NC(=O)C2(C#N)CC2)C(C)(C)C)ccc1-c1scnc1C` [Compound 6, (2S,4R)-1-((S)-2-(1-Cyanocyclopropane-1-carboxamido)-3,3-dimethylbutanoyl)-4-hydroxy-N-(3-methyl-4-(4-methylthiazol-5-yl)benzyl)pyrrolidine-2-carboxamide], in data set [1], the dissociation constant (Kd) is 0.496 ± 0.062 µM and the concentration for half-maximal inhibition (IC50) is 2.26 ± 0.073 µM. In addition, the chromatographic logD in data set [2] was 2. The molecule also showed a fraction unbound at 0.5 mg/mL in data set [3] of 0.11.
The corresponding values for `COc1cc(CNC(=O)[C@@H]2C[C@@H](O)CN2C(=O)[C@@H](NC(=O)C2(C#N)CC2)C(C)(C)C)ccc1-c1scnc1C` [Compound 7, (2S,4R)-1-((S)-2-(1-Cyanocyclopropane-1-carboxamido)-3,3-dimethylbutanoyl)-4-hydroxy-N-(3-methoxy-4-(4-methylthiazol-5-yl)benzyl)pyrrolidine-2-carboxamide] are 0.163 ± 0.022 µM, 0.742 ± 0.014 µM, 1.9 and 0.13.
Take `Cc1ncsc1-c1ccc(CNC(=O)[C@@H]2C[C@@H](O)CN2C(=O)[C@@H](NC(=O)C2(C#N)CC2)C(C)(C)C)cc1F` [Compound 8, (2S,4R)-1-((S)-2-(1-Cyanocyclopropane-1-carboxamido)-3,3-dimethylbutanoyl)-N-(3-fluoro-4-(4-methylthiazol-5-yl)benzyl)-4-hydroxypyrrolidine-2-carboxamide]: in data set [1], the equilibrium dissociation constant (Kd) is 0.097 ± 0.011 µM and the IC50 was found to be 0.444 ± 0.018 µM. Also, in data set [2], the chromatographic logD turned out to be 1.9. For the same molecule, the unbound share (fraction unbound) at 0.5 mg/mL in data set [3] was 0.12.
On the same counts, the results for `Cc1ncsc1-c1ccc(CNC(=O)[C@@H]2C[C@@H](O)CN2C(=O)[C@@H](NC(=O)C2(C#N)CC2)C(C)(C)C)cc1Cl` [Compound 9, (2S,4R)-N-(3-Chloro-4-(4-methylthiazol-5-yl)benzyl)-1-((S)-2-(1-cyanocyclopropane-1-carboxamido)-3,3-dimethylbutanoyl)-4-hydroxypyrrolidine-2-carboxamide] are 0.22 ± 0.011 µM, 1.03 ± 0.127 µM, 2.1 and 0.09.
For `Cc1cc(-c2scnc2C)cc(C)c1CNC(=O)[C@@H]1C[C@@H](O)CN1C(=O)[C@@H](NC(=O)C1(C#N)CC1)C(C)(C)C` [Compound 10, (2S,4R)-1-((S)-2-(1-Cyanocyclopropane-1-carboxamido)-3,3-dimethylbutanoyl)-N-(2,6-dimethyl-4-(4-methylthiazol-5-yl)benzyl)-4-hydroxypyrrolidine-2-carboxamide], in data set [1], the dissociation constant Kd is 4.11 ± 0.56 µM and the IC50 is 21.1 ± 2.18 µM. Moreover, the chromatographic logD in data set [2] is 2.2. For the same molecule, in data set [3], the unbound share (fraction unbound) at 0.5 mg/mL is 0.1.
On the same counts, the results for `COc1cc(-c2scnc2C)cc(OC)c1CNC(=O)[C@@H]1C[C@@H](O)CN1C(=O)[C@@H](NC(=O)C1(C#N)CC1)C(C)(C)C` [Compound 11, (2S,4R)-1-((S)-2-(1-Cyanocyclopropane-1-carboxamido)-3,3-dimethylbutanoyl)-N-(2,6-dimethoxy-4-(4-methylthiazol-5-yl)benzyl)-4-hydroxypyrrolidine-2-carboxamide] are 6.24 ± 0.62 µM, 32.1 ± 2.15 µM, 2 and 0.12.
`Cc1ncsc1-c1cc(F)c(CNC(=O)[C@@H]2C[C@@H](O)CN2C(=O)[C@@H](NC(=O)C2(C#N)CC2)C(C)(C)C)c(F)c1` [Compound 12, (2S,4R)-1-((S)-2-(1-Cyanocyclopropane-1-carboxamido)-3,3-dimethylbutanoyl)-N-(2,6-difluoro-4-(4-methylthiazol-5-yl)benzyl)-4-hydroxypyrrolidine-2-carboxamide]: in data set [1], the dissociation constant Kd was 2.13 ± 0.15 µM and the IC50 was determined as 11 ± 0.747 µM. Besides, the chromatographic logD in data set [2] came out at 1.9. Moreover, in data set [3], the free fraction (fraction unbound) at 0.5 mg/mL is 0.14.
On the same counts, the results for `Cc1ncsc1-c1cc(Cl)c(CNC(=O)[C@@H]2C[C@@H](O)CN2C(=O)[C@@H](NC(=O)C2(C#N)CC2)C(C)(C)C)c(Cl)c1` [Compound 13, (2S,4R)-1-((S)-2-(1-Cyanocyclopropane-1-carboxamido)-3,3-dimethylbutanoyl)-N-(2,6-dichloro-4-(4-methylthiazol-5-yl)benzyl)-4-hydroxypyrrolidine-2-carboxamide] are 8.15 ± 0.68 µM, 42 ± 1.92 µM, 2.4 and 0.09.
With `COc1c(CNC(=O)[C@@H]2C[C@@H](O)CN2C(=O)[C@@H](NC(=O)C2(C#N)CC2)C(C)(C)C)ccc(-c2scnc2C)c1F` [Compound 21, (2S,4R)-1-((S)-2-(1-Cyanocyclopropane-1-carboxamido)-3,3-dimethylbutanoyl)-N-(3-fluoro-2-methoxy-4-(4-methylthiazol-5-yl)benzyl)-4-hydroxypyrrolidine-2-carboxamide], in data set [2], the chromatographic logD stood at 2.1. The molecule also had a fraction unbound at 0.5 mg/mL in data set [3] of 0.11.
Take `Cc1ncsc1-c1cc2c(cc1F)[C@@H](NC(=O)[C@@H]1C[C@@H](O)CN1C(=O)[C@@H](NC(=O)C1(F)CC1)C(C)(C)C)CC2` [Compound 36, (2S,4R)-N-((S)-6-Fluoro-5-(4-methylthiazol-5-yl)-2,3-dihydro-1H-inden-1-yl)-1-((S)-2-(1-fluorocyclopropane-1-carboxamido)-3,3-dimethylbutanoyl)-4-hydroxypyrrolidine-2-carboxamide]: in data set [1], the Kd was 2.55 ± 0.51 µM and the IC50 amounted to 10.6 ± 2.03 µM. The chromatographic logD in data set [2] is 2.3.
With `Cc1ncsc1-c1ccc(CNC(=O)[C@@H]2C[C@@H](O)CN2C(=O)[C@@H](NC(=O)C2(F)CC2)C(C)(C)C)cc1` [Compound 38, (2S,4R)-1-((S)-2-(1-Fluorocyclopropane-1-carboxamido)-3,3-dimethylbutanoyl)-4-hydroxy-N-(4-(4-methylthiazol-5-yl)benzyl)pyrrolidine-2-carboxamide, reference compound], the chromatographic logD in data set [2] turned out to be 1.8. In data set [3], this molecule gave a fraction unbound at 0.5 mg/mL of 0.14.
